Counter-ions that a name gives are not always drawn. Like-named read-outs stand apart in the source and are kept apart here.
Assays:
[1] = molecular target: T1, human JAK1 (a.a. 837-1142) (Homo sapiens, UniProt P23458); assay: In vitro JAK kinase assay (HTRF, phosphorylation of biotinylated peptide), JAK1; format: biochemical
T1 construct: The catalytic domains of human JAK1 (a.a. 837-1142); His tag (N); made in house; host or cells: insect cells (baculovirus)
In short: (§1)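 His-tagged catalytic domains expressed in baculovirus/insect cells; biotinylated peptide (500 nM) phosphorylation in 50 mM Tris pH 7.8, 100 mM NaCl, 5 mM DTT, 0.01% BSA, 1 h room temperature. ATP at Km (JAK1 90 μM, JAK2 30 μM) or 1 mM. EDTA stop, Eu-Py20/SA-APC HTRF read; IC50.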

Jak2 (a.a. 828-1132) = molecular target: T2, Jak2 (a.a. 828-1132) (Homo sapiens, UniProt O60674); assay: In vitro JAK kinase assay (HTRF, phosphorylation of biotinylated peptide), JAK2; format: biochemical
T2 construct: Jak2 (a.a. 828-1132); His tag (N); made in house; host or cells: insect cells (baculovirus)
In short: as §1

[2] = 1 mM ATP, Examples 92-162, read-out: JAK1 IC50 (nM) @ 1 mM ATP
[3] = 1 mM ATP, Examples 92-162, read-out: JAK2 IC50 (nM) @ 1 mM ATP
[4] = 1 mM ATP, Examples 12-91, read-out: JAK1 IC50 (nM) @ 1 mM ATP
[5] = 1 mM ATP, Examples 12-91, read-out: JAK2 IC50 (nM) @ 1 mM ATP

T2 sequence (O60674 828-1132): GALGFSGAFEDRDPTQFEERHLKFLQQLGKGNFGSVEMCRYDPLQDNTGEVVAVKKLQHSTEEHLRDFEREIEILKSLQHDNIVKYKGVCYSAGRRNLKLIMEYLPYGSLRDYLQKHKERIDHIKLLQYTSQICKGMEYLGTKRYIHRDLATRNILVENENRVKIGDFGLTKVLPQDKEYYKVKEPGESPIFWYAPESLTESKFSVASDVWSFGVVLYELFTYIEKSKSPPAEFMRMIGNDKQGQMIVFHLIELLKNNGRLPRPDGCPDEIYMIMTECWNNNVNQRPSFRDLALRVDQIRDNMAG
T1 sequence (P23458 849-1154): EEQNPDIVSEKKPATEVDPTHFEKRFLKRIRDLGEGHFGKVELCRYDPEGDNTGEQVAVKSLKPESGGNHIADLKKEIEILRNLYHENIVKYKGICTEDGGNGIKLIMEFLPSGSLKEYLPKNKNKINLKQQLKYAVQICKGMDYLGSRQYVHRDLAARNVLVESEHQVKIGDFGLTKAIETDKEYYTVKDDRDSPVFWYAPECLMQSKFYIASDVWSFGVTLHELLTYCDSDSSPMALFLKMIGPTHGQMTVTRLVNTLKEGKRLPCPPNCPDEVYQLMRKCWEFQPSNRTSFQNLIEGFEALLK

| IC50 [1, 2] [nM] | IC50 (Jak2 (a.a. 828-1132); [3]) [nM] | IC50 [1, 4] [nM] | IC50 (Jak2 (a.a. 828-1132); [5]) [nM] | Structure (SMILES) | other results |
| --- | --- | --- | --- | --- | --- |
| 20 to 50 | 50 to 100 |  |  | CCC(CN1CCN(S(=O)(=O)c2ccc(C#N)cc2)CC1)n1cc(-c2ncnc3[nH]ccc23)cn1 (stereo not shown) [Example 129, 4-(4-(2-(4-(7H-pyrrolo[2,3-d]pyrimidin-4-yl)-1H-pyrazol-1-yl)butyl)piperazin-1-ylsulfonyl)benzonitrile] |  |
| < 20 | 20 to 50 |  |  | CCC(CN1CCN(S(=O)(=O)c2cccc(C)n2)CC1)n1cc(-c2ncnc3[nH]ccc23)cn1 (stereo not shown) [Example 131, 4-(1-(1-(4-(6-methylpyridin-2-ylsulfonyl)piperazin-1-yl)butan-2-yl)-1H-pyrazol-4-yl)-7H-pyrrolo[2,3-d]pyrimidine] |  |
|  |  | 10 to 50 | > 100 | N#CCC(CN1CCN(C(=O)c2ccc(F)c(OC(F)(F)F)c2)CC1)n1ccc(-c2ncnc3[nH]ccc23)c1 (stereo not shown) [Example 85, 3-(3-(7H-pyrrolo[2,3-d]pyrimidin-4-yl)-1H-pyrrol-1-yl)-4-(4-(4-fluoro-3-(trifluoromethoxy)benzoyl)piperazin-1-yl)butanenitrile] |  |
| < 20 | > 100 |  |  | COCC1CN(C(=O)c2ccc(C#N)cc2F)CCN1CC(CC#N)n1cc(-c2ncnc3[nH]ccc23)cn1 (single isomer, unassigned) [Example 157—peak 2, 4-{[4-{3-cyano-2-[4-(7H-pyrrolo[2,3-d]pyrimidin-4-yl)-1H-pyrazol-1-yl]propyl}-3-(methoxymethyl)piperazin-1-yl]carbonyl}-3-fluorobenzonitrile] |  |
| > 100 | > 100 |  |  | COCC1CN(C(=O)c2ccc(C#N)cc2F)CCN1CC(CC#N)n1cc(-c2ncnc3[nH]ccc23)cn1 (single isomer, unassigned) [Example 157—peak 3, 4-{[4-{3-cyano-2-[4-(7H-pyrrolo[2,3-d]pyrimidin-4-yl)-1H-pyrazol-1-yl]propyl}-3-(methoxymethyl)piperazin-1-yl]carbonyl}-3-fluorobenzonitrile] |  |
| 20 to 50 | > 100 |  |  | N#CCC(CN1CCCN(S(=O)(=O)c2ccccc2Oc2ccccc2)CC1)n1cc(-c2ncnc3[nH]ccc23)cn1 (stereo not shown) [Example 113, 4-{4-[(2-phenoxyphenyl)sulfonyl]-1,4-diazepan-1-yl}-3-[4-(7H-pyrrolo[2,3-d]pyrimidin-4-yl)-1H-pyrazol-1-yl]butanenitrile] |  |
| 20 to 50 | > 100 |  |  | N#CCC(CN1CCCN(C(=O)c2ccccc2F)CC1)n1cc(-c2ncnc3[nH]ccc23)cn1 (stereo not shown) [Example 101, 4-[4-(2-fluorobenzoyl)-1,4-diazepan-1-yl]-3-[4-(7H-pyrrolo[2,3-d]pyrimidin-4-yl)-1H-pyrazol-1-yl]butanenitrile] |  |
|  |  | 10 to 50 | 10 to 50 | N#CCC(CN1CCN(C(=O)c2cccc(OC(F)(F)F)c2F)CC1)n1cc(-c2ncnc3[nH]ccc23)cn1 (stereo not shown) [Example 51, 3-(4-(7H-pyrrolo[2,3-d]pyrimidin-4-yl)1H-pyrazol-1-yl)-4-(4-(2-fluoro-3-(trifluoromethoxy)benzoyl)piperazin-1-yl)butanenitrile] |  |
|  |  | > 100 | > 100 | C[C@H]1CN(C(=O)c2ccc(C#N)cc2F)CCN1CC(CC#N)n1cc(-c2ncnc3[nH]ccc23)cn1 (single isomer, unassigned) [25, S-1] |  |
|  |  | < 10 | 50 to 100 | N#CCC(CN1CCN(C(=O)c2cc(F)cc(F)c2)CC1)n1ccc(-c2ncnc3[nH]ccc23)c1 (stereo not shown) [Example 81, 3-(3-(7H-pyrrolo[2,3-d]pyrimidin-4-yl)-1H-pyrrol-1-yl)-4-(4-(3,5-difluorobenzoyl)piperazin-1-yl)butanenitrile] |  |
| 20 to 50 | 50 to 100 |  |  | N#CCC(CN1CCCN(C(=O)c2ccc(F)cc2F)CC1)n1cc(-c2ncnc3[nH]ccc23)cn1 (stereo not shown) [Example 99, 4-[4-(2,4-difluorobenzoyl)-1,4-diazepan-1-yl]-3-[4-(7H-pyrrolo[2,3-d]pyrimidin-4-yl)-1H-pyrazol-1-yl]butanenitrile] |  |
|  |  | < 10 | < 10 | N#CCC(CN1CCN(C(=O)c2ncc(Cl)cc2F)CC1)n1cc(-c2ncnc3[nH]ccc23)cn1 (stereo not shown) [Example 16, 4-{4-[(5-chloro-3-fluoropyridin-2-yl)carbonyl]piperazin-1-yl}-3-[4-(7H-pyrrolo[2,3-d]pyrimidin-4-yl)-1H-pyrazol-1-yl]butanenitrile] |  |

Continued, compound first:

| Structure (SMILES) | IC50 [1, 2] [nM] | IC50 (Jak2 (a.a. 828-1132); [3]) [nM] | IC50 [1, 4] [nM] | IC50 (Jak2 (a.a. 828-1132); [5]) [nM] | other results |
| --- | --- | --- | --- | --- | --- |
| C[C@@H]1CN(CC(CC#N)n2cc(-c3ncnc4[nH]ccc34)cn2)CCN1C(=O)c1ccc(C#N)cc1F (mixture of isomers) [Example 161, 4-[((2R)-4-{3-cyano-2-[4-(7H-pyrrolo[2,3-d]pyrimidin-4-yl)-1H-pyrazol-1-yl]propyl}-2-methylpiperazin-1-yl)carbonyl]-3-fluorobenzonitrile] | 50 to 100 | > 100 |  |  |  |
| COc1ccc(C(=O)N2CCN(CC(CC#N)n3cc(-c4ncnc5[nH]ccc45)cn3)CC2)cc1Cl (stereo not shown) [Example 44, 3-(4-(7H-pyrrolo[2,3-d]pyrimidin-4-yl)-1H-pyrazol-1-yl)-4-(4-(3-chloro-4-methoxybenzoyl)piperazin-1-yl)butanenitrile trifluoroacetate salt] |  |  | < 10 | 10 to 50 |  |
| N#CCC(CN1CCN(C(=O)c2ccc(O)c(Cl)c2)CC1)n1cc(-c2ncnc3[nH]ccc23)cn1 (stereo not shown) [Example 54, 3-(4-(7H-pyrrolo[2,3-d]pyrimidin-4-yl)-1H-pyrazol-1-yl)-4-(4-(3-chloro-4-hydroxybenzoyl)piperazin-1-yl)butanenitrile trifluoroacetate salt] |  |  | 10 to 50 | 50 to 100 |  |
| N#CCC(CN1CCN(C(=O)c2ccc(F)cc2F)CC1)n1ccc(-c2ncnc3[nH]ccc23)c1 (stereo not shown) [Example 90, 3-(3-(7H-pyrrolo[2,3-d]pyrimidin-4-yl)-1H-pyrrol-1-yl)-4-(4-(2,4-difluorobenzoyl)piperazin-1-yl)butanenitrile] |  |  | < 10 | < 10 |  |
| CCC(CN1CCN(S(=O)(=O)c2cccs2)CC1)n1cc(-c2ncnc3[nH]ccc23)cn1 (stereo not shown) [Example 134, 4-(1-(1-(4-(thiophen-2-ylsulfonyl)piperazin-1-yl)butan-2-yl)-1H-pyrazol-4-yl)-7H-pyrrolo[2,3-d]pyrimidine] | < 20 | 20 to 50 |  |  |  |
| N#CCC(CN1CCCN(S(=O)(=O)c2ccccc2C#N)CC1)n1cc(-c2ncnc3[nH]ccc23)cn1 (stereo not shown) [Example 102, 2-[(4-{3-cyano-2-[4-(7H-pyrrolo[2,3-d]pyrimidin-4-yl)-1H-pyrazol-1-yl]propyl}-1,4-diazepan-1-yl)sulfonyl]benzonitrile] | 20 to 50 | 50 to 100 |  |  |  |
| N#CCC(CN1CCN(S(=O)(=O)c2cccnc2)CC1)n1cc(-c2ncnc3[nH]ccc23)cn1 (stereo not shown) [Example 65, 3-(4-(7H-pyrrolo[2,3-d]pyrimidin-4-yl)-1H-pyrazol-1-yl)-4-(4-(pyridin-3-ylsulfonyl)piperazin-1-yl)butanenitrile] |  |  | < 10 | 10 to 50 |  |
| N#CCC(CN1CCCN(S(=O)(=O)c2ccccc2OC(F)(F)F)CC1)n1cc(-c2ncnc3[nH]ccc23)cn1 (stereo not shown) [Example 110, 3-[4-(7H-pyrrolo[2,3-d]pyrimidin-4-yl)-1H-pyrazol-1-yl]-4-(4-{[2-(trifluoromethoxy)phenyl]sulfonyl}-1,4-diazepan-1-yl)butanenitrile] | 20 to 50 | > 100 |  |  |  |
| N#CCC(CN1CCN(C(=O)c2c(F)cc(C#N)cc2F)CC1)n1cc(-c2ncnc3[nH]ccc23)cn1 (stereo not shown) [Example 15, 4-[(4-{3-cyano-2-[4-(7H-pyrrolo[2,3-d]pyrimidin-4-yl)-1H-pyrazol-1-yl]propyl}piperazin-1-yl)carbonyl]-3,5-difluorobenzonitrile phosphate Salt] |  |  | < 10 | 50 to 100 |  |
| N#CCC(CN1CCN(C(=O)c2ccccn2)CC1)n1cc(-c2ncnc3[nH]ccc23)cn1 (stereo not shown) [Example 58, 3-(4-(7H-pyrrolo[2,3-d]pyrimidin-4-yl)-1H-pyrazol-1-yl)-4-(4-picolinoylpiperazin-1-yl)butanenitrile] |  |  | 10 to 50 | > 100 |  |
| CCC(CN1CCN(C(=O)c2cc(F)cc(F)c2)CC1)n1cc(-c2ncnc3[nH]ccc23)cn1 (stereo not shown) [Example 121, (4-(2-(4-(7H-pyrrolo[2,3-d]pyrimidin-4-yl)-1H-pyrazol-1-yl)butyl)piperazin-1-yl)(3,5-difluorophenyl)methanone] | 20 to 50 | > 100 |  |  |  |
| CCC(CN1CCN(S(=O)(=O)c2cc(F)ccc2F)CC1)n1cc(-c2ncnc3[nH]ccc23)cn1 (stereo not shown) [Example 141, 4-(1-(1-(4-(2,5-difluorophenylsulfonyl)piperazin-1-yl)butan-2-yl)-1H-pyrazol-4-yl)-7H-pyrrolo[2,3-d]pyrimidine] | < 20 | 50 to 100 |  |  |  |
| Cn1ccc(S(=O)(=O)N2CCC(CC(CC#N)n3cc(-c4ncnc5[nH]ccc45)cn3)CC2)n1 (stereo not shown) [Example 7, 4-{1-[(1-methyl-1H-pyrazol-3-yl)sulfonyl]piperidin-4-yl}-3-[4-(7H-pyrrolo[2,3-d]pyrimidin-4-yl)-1H-pyrazol-1-yl]butanenitrile] |  |  |  |  | IC50 ([1]; 1 mM ATP, Examples 1-11, read-out: IC50 (nM) @ 1 mM ATP JAK1): < 10 nM; IC50 ([1]; Km ATP (90 μM for Jak1), Examples 1-11, read-out: IC50 (nM) @ Km ATP JAK1): < 10 nM; IC50 (Jak2 (a.a. 828-1132); 1 mM ATP, Examples 1-11, read-out: IC50 (nM) @ 1 mM ATP JAK2): < 10 nM; IC50 (Jak2 (a.a. 828-1132); Km ATP (30 μM for Jak2), Examples 1-11, read-out: IC50 (nM) @ Km ATP JAK2): < 10 nM |
